Data set [1] concerns cerebellar granule neurons (CGNs). Description: Hoechst 33342 staining of apoptotic bodies in glutamate-challenged CGNs. The settings on record: 24 h glutamate 100 µM. It counts as cell-based, rat. How it is done:
(§1) CGNs were prepared from the 8-day-old Sprague–Dawley rats as described in our previous publication (Li et al., 2005). Briefly, animals were anesthetized and sacrificed, and their cerebella were collected. Then, the freshly collected cerebella were rinsed in cold Kreb’s buffer-BSA and digested with 0.025 % trypsin incubated in a 37°C for 15 min. The reaction was stopped, and the single cell suspension was obtained through pipetting up and down the sedimentary tissue. CGNs were seeded in basal modified Eagle’s medium (ThermoFisher Scientific, Waltham, MA, USA) supplemented with 10 % fetal bovine serum, 25 mM KCl, 2 mM glutamine and 100 units/mL penicillin/streptomycin at a density of 1.5×10^6 cells/mL. […]
Chromatin condensation, the apoptotic characteristic feature, was determined by Hoechst 33342 staining as described in previous publications with some modifications (Guo et al., 2017; Jiajia et al., 2017). […] The nuclei were visualized by using a fluorescence Leica TCS SPE confocal (Leica, Wetzlar, Germany) at 200× magnification. In the observation, cells with bright blue fragmented nuclei, which were showing condensation of chromatin, were counted as apoptotic cells. Condensed nuclei were scored by counting at least 500 cells of three randomly chosen fields for each sample in three separated experiments.

A short description of data set [2]: toxicology study in beagle dogs (NOAEL). The settings on record: dog, in vivo. On the procedure: Forty healthy adult beagle dogs were randomly divided into 4 groups of 5 males (weighing 6.43-8.40 kg) and 5 females (weighing 5.39-6.77 kg) each: (1) Placebo group; (2) MN-08 (4 mg/kg) group; (2) MN-08 (12 mg/kg) group; (3) MN-08 (24 mg/kg) group. MN-08 tablets were administered to beagle dogs by gastric gavage for 4 weeks. The no observed adverse effect level (NOAEL) was examined according to previously described (Brownawell, Carmines, & Montesano, 2011).

Data set [3] deals with ERK and PI3K/Akt/GSK3β pathway. Description: Western blotting of p-ERK, p-Akt, p-GSK3β and Bcl-2 in glutamate-challenged CGNs. It counts as cell-based, rat. The settings on record: for upregulation of ERK1/2 phosphorylation induced by glutamate: 2 h pre‐treatment, glutamate 0.5 h.
From the text: To further characterize the neuroprotection of MN‐08, the level of the key signaling molecules, such as ERK, Akt, and GSK3β, was examined by Western blotting assay. […] Moreover, pre‐treatment with MN‐08 reversed expression of both p‐Akt and p‐GSK3β with the challenge of glutamate. Akt is an important downstream member of PI3K. To further confirm whether the PI3K/Akt pathway was associated with the neuroprotection of MN‐08 against glutamate‐induced excitotoxicity, specific PI3K inhibitor LY294002 was applied and incubated with MN‐08. […] Taken together, MN‐08 might protect against glutamate‐induce cytotoxicity by reversing the dysregulations of ERK pathway and PI3K/Akt/GSK3β pathway.
Western blotting analysis was performed as previously described with minor modifications (Huang, Li, & Nan, 2017). Proteins were extracted from hippocampal tissue and their concentrations determined by the BCA protein assay kit (Fdbio science, Hangzhou, China). The protein (20 μg) was separated on a 12% SDS-PAGE gel and then transferred to PVDF membranes. The membranes were blocked using 5 % nonfat dry milk for 2 h. The protein blots were incubated with the corresponding primary antibodies against p-Akt (#4060, 1:1000, Cell Signaling Technology), Akt (#4685, 1:1000, Cell Signaling Technology), BACE1 (#5606, 1:1000, Cell Signaling Technology), PS1 (#5643, 1:1000, Cell Signaling Technology), p-GSK3β (#5558, 1:1000, Cell Signaling Technology), GSK3β (#12456, 1:1000, Cell Signaling Technology), Bcl-2 (#3498, 1:1000, Cell Signaling Technology), Bax (#5023, 1:1000, Cell Signaling Technology), Cleaved caspase-3 (#9661, 1:1000, Cell Signaling Technology), Caspase-3 (#9662, 1:1000, Cell Signaling Technology), ADAM10 (#14194, 1:1000, Cell Signaling Technology), APP (#ab241592, 1:1000, Abcam), sAPPα (#ab126723, 1:1000, Abcam), NEP (#ab216341, 1:1000, Abcam), Synapsin I (#ab64581, 1:1000, Abcam), Synapsin II (#ab76494, 1:1000, Abcam), NR2A (#ab124913, 1:2000, Abcam), PSD95 (#ab18258, 1:1000, Abcam), Synaptophysin (#ab32127, 1:1000, Abcam), IDE (#ab133561, 1:1000, Abcam), Drebin (#ab178408, 1:1000, Abcam) and Tau-5 (#ab80579, 1:2000, Abcam) overnight at 4°C. After washing 3 times, the membranes were incubated with the respective HRP-conjugated secondary antibody. ECL Western blotting Detection Reagents (Fdbio science, Hangzhou, China) were used to perform Chemiluminescence detection. Quantitative analysis of protein bands was conducted by the Carestream system (Carestream Health, Inc, USA).
as §1, with “cells/mL. Cytosine arabinoside (10 μM) was added to inhibit the growth of non-neuronal cells at 24 h after seeding. All experiments were carried out after 8 days in vitro.” for “cells/mL.”
In general terms: Immunoblotting shows a protein as a band on a membrane.

We go through 2 compounds from PMC8208785, “Therapeutic efficacy of novel memantine nitrate MN‐08 in animal models of Alzheimer’s disease” (Aging Cell, 2021).

As a reminder, the NOAEL is the highest dose or exposure tested at which no adverse effect was seen.

Consider `CCC12CC3CC(N)(C1)CC(CO[N+](=O)[O-])(C3)C2` (centres unmarked) [MN‐08], for which the “numbers of apoptotic bodies” value in data set [1] (MN‐08 30 µM) is “significantly reduced”. This compound registered a no observed adverse effect level (NOAEL) at 4 weeks in data set [2] (both sexes, beagle, po) of 24 mg/kg. Besides, the “expression of both p‐Akt and p‐GSK3β with the challenge of glutamate” value in data set [3] (MN‐08 30 µM pre‐treatment) is on record as “reversed”. In addition, the “upregulation of ERK1/2 phosphorylation induced by glutamate” value in data set [3] (MN‐08 30 µM) was “significantly inhibited”. For the same compound, the “Bcl‐2 downregulation caused by glutamate” value in data set [3] (pre‐treatment MN‐08 30 µM) is “significantly reversed”.
As for `CC12CC3CC(C)(C1)CC(N)(C3)C2` [memantine, 1‐amino‐3,5‐dimethyladamantane], in data set [1] (memantine 10 µM), the “numbers of apoptotic bodies” value is “significantly reduced”. Besides, the no-observed-adverse-effect level (NOAEL) in data set [2] (beagle dogs, memantine, regimen not stated, read-out: no observed adverse effect level (NOAEL)) worked out at 9 mg/kg. Further, in data set [3] (memantine 10 µM), the “upregulation of ERK1/2 phosphorylation induced by glutamate” value was “significantly inhibited”.
